Legend:
Type in all cases: in vivo
[1] = system: Amaranthus retoflexus (AMARE); assay: Post-emergence herbicide test, glasshouse, percentage damage; conditions: 1000 g/ha, evaluated after 13 days
In short: (§1)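 Spray: acetone/water (50:50) with 0.5% Tween 20, 500 g/ha unless stated; pre-emergence 1 d after sowing, post-emergence at 8 d. Glasshouse 24/16 °C, 14 h light, 65% RH, watered twice daily. Read at 13 d, % damage as 1-5 score.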

[2] = system: Echinochloa crus-galli (ECHCG); assay: as above; conditions: 1000 g/ha, evaluated after 13 days
In short: as §1

[3] = system: Ipomoea hederacea (IPOHE); assay: as above; conditions: 1000 g/ha, evaluated after 13 days
In short: as §1

Lolium perenne (LOLPE) [4] = assay: as above; conditions: 1000 g/ha, evaluated after 13 days
In short: as §1

Setaria faberi (SETFA) [5] = assay: as above; conditions: 1000 g/ha, evaluated after 13 days
In short: as §1

Solanum nigrum (SOLNI) [6] = assay: as above; conditions: 1000 g/ha, evaluated after 13 days
In short: as §1

[7] = system: Amaranthus retoflexus (AMARE); assay: Pre-emergence herbicide test, glasshouse, percentage damage; conditions: rate 1000 g/ha, evaluated after 13 days
In short: as §1

[8] = system: Echinochloa crus-galli (ECHCG); assay: as above; conditions: rate 1000 g/ha, evaluated after 13 days
In short: as §1

[9] = system: Ipomoea hederacea (IPOHE); assay: as above; conditions: rate 1000 g/ha, evaluated after 13 days
In short: as §1

Lolium perenne (LOLPE) [10] = assay: as above; conditions: rate 1000 g/ha, evaluated after 13 days
In short: as §1

Setaria faberi (SETFA) [11] = assay: as above; conditions: rate 1000 g/ha, evaluated after 13 days
In short: as §1

Solanum nigrum (SOLNI) [12] = assay: as above; conditions: rate 1000 g/ha, evaluated after 13 days
In short: as §1

| Structure (SMILES) | percentage damage caused to the plant, AMARE [1] | percentage damage caused to the plant, ECHCG [2] | percentage damage caused to the plant, IPOHE [3] | percentage damage caused to the plant, LOLPE (Lolium perenne (LOLPE) [4]) | percentage damage caused to the plant, SETFA (Setaria faberi (SETFA) [5]) | percentage damage caused to the plant, SOLNI (Solanum nigrum (SOLNI) [6]) | Pre-emergence Test AMARE percentage damage (five point scale) [7] | Pre-emergence Test ECHCG percentage damage (five point scale) [8] | Pre-emergence Test IPOHE percentage damage (five point scale) [9] | Pre-emergence Test LOLPE percentage damage (five point scale) (Lolium perenne (LOLPE) [10]) | Pre-emergence Test SETFA percentage damage (five point scale) (Setaria faberi (SETFA) [11]) | Pre-emergence Test SOLNI percentage damage (five point scale) (Solanum nigrum (SOLNI) [12]) |
| --- | --- | --- | --- | --- | --- | --- | --- | --- | --- | --- | --- | --- |
| Fc1cc(Cl)cnc1Oc1ccccc1-c1cc(C(F)F)no1 [Compound A43] | 5 (5=81-100%) | 4 (4=61-80%) | 4 (4=61-80%) | 5 (5=81-100%) | 5 (5=81-100%) | 5 (5=81-100%) | 5 (5=81-100%) | 5 (5=81-100%) | 4 (4=61-80%) | 5 (5=81-100%) | 5 (5=81-100%) | 5 (5=81-100%) |
| Fc1cc(Cl)cnc1Oc1cccc(Br)c1-c1cc(C(F)F)no1 [Compound A44] | 5 (5=81-100%) | 5 (5=81-100%) | 5 (5=81-100%) | 5 (5=81-100%) | 5 (5=81-100%) | 5 (5=81-100%) | 5 (5=81-100%) | 5 (5=81-100%) | 5 (5=81-100%) | 5 (5=81-100%) | 5 (5=81-100%) | 5 (5=81-100%) |
| O=[N+]([O-])c1cccc(Oc2ncc(Cl)cc2F)c1-n1cc(C(F)(F)F)cn1 [Compound A46] | 5 (5=81-100%) | 3 (3=41-60%) | 2 (2=21-40%) | 3 (3=41-60%) | 4 (4=61-80%) | 5 (5=81-100%) | 4 (4=61-80%) | 4 (4=61-80%) | 1 (1=0-20%) | 1 (1=0-20%) | 5 (5=81-100%) | 1 (1=0-20%) |
| Fc1cccc(Oc2cccc(C(F)(F)F)n2)c1-c1cc(C(F)F)no1 [Compound A47] | 3 (3=41-60%) | 1 (1=0-20%) | 1 (1=0-20%) | 1 (1=0-20%) | 1 (1=0-20%) | 3 (3=41-60%) | 1 (1=0-20%) | 1 (1=0-20%) | 1 (1=0-20%) | 1 (1=0-20%) | 1 (1=0-20%) | 1 (1=0-20%) |
| Fc1cccc(Oc2cccc(OC(F)F)n2)c1-c1cc(C(F)F)no1 [Compound A48] | 5 (5=81-100%) | 1 (1=0-20%) | 2 (2=21-40%) | 1 (1=0-20%) | 2 (2=21-40%) | 5 (5=81-100%) | 1 (1=0-20%) | 1 (1=0-20%) | 1 (1=0-20%) | 1 (1=0-20%) | 1 (1=0-20%) | 1 (1=0-20%) |
| N#Cc1cccnc1Oc1cccc(F)c1-c1cc(C(F)F)no1 [Compound A49] | 5 (5=81-100%) | 3 (3=41-60%) | 3 (3=41-60%) | 1 (1=0-20%) | 2 (2=21-40%) | 5 (5=81-100%) | 5 (5=81-100%) | 3 (3=41-60%) | 1 (1=0-20%) | 1 (1=0-20%) | 5 (5=81-100%) | 5 (5=81-100%) |
| Fc1ccc(Oc2cccc(F)c2-c2cc(C(F)F)no2)nc1F [Compound A50] | 3 (3=41-60%) | 2 (2=21-40%) | 1 (1=0-20%) | 1 (1=0-20%) | 3 (3=41-60%) | 5 (5=81-100%) | 4 (4=61-80%) | 1 (1=0-20%) | 1 (1=0-20%) | 1 (1=0-20%) | 4 (4=61-80%) | 4 (4=61-80%) |
| Fc1cccc(Oc2ncc(C(F)(F)F)cc2Cl)c1-c1cc(C(F)F)no1 [Compound A51] | 4 (4=61-80%) | 1 (1=0-20%) | 1 (1=0-20%) | 1 (1=0-20%) | 1 (1=0-20%) | 5 (5=81-100%) | 1 (1=0-20%) | 1 (1=0-20%) | 1 (1=0-20%) | 1 (1=0-20%) | 1 (1=0-20%) | 1 (1=0-20%) |
| Cc1cccc(Oc2ncc(Cl)cc2F)c1-n1cc(C(F)(F)F)cn1 [Compound A54] | 3 (3=41-60%) | 3 (3=41-60%) | 1 (1=0-20%) | 4 (4=61-80%) | 5 (5=81-100%) | 5 (5=81-100%) | 5 (5=81-100%) | 3 (3=41-60%) | 1 (1=0-20%) | 5 (5=81-100%) | 5 (5=81-100%) | 5 (5=81-100%) |
| Fc1cccc(Oc2cccc(C(F)F)n2)c1-c1cc(C(F)F)no1 [Compound A55] | 5 (5=81-100%) | 1 (1=0-20%) | 1 (1=0-20%) | 1 (1=0-20%) | 2 (2=21-40%) | 5 (5=81-100%) | 2 (2=21-40%) | 1 (1=0-20%) | 1 (1=0-20%) | 1 (1=0-20%) | 4 (4=61-80%) | 2 (2=21-40%) |
| Fc1cc(Cl)cnc1Oc1cccc(F)c1-n1cc(C(F)(F)F)cn1 [Compound A58] | 5 (5=81-100%) | 4 (4=61-80%) | 5 (5=81-100%) | 5 (5=81-100%) | 5 (5=81-100%) | 5 (5=81-100%) | 5 (5=81-100%) | 5 (5=81-100%) | 5 (5=81-100%) | 5 (5=81-100%) | 5 (5=81-100%) | 5 (5=81-100%) |
| Fc1cc(Cl)cnc1Oc1cccc(Br)c1-n1cc(C(F)(F)F)cn1 [Compound A59] | 5 (5=81-100%) | 3 (3=41-60%) | 5 (5=81-100%) | 4 (4=61-80%) | 5 (5=81-100%) | 5 (5=81-100%) | 5 (5=81-100%) | 2 (2=21-40%) | 2 (2=21-40%) | 4 (4=61-80%) | 5 (5=81-100%) | 5 (5=81-100%) |

From patent US12227495B2, “Herbicidal compounds” (SYNGENTA CROP PROTECTION AG, priority 2018, dated 2025)
